How the values were obtained:
platelets [1] = assay: Platelets aggregation inhibitory activity (method of Born et al.), collagen-induced, human PRP (Pharmacological Test I); format: cell-based, man; conditions: Homo sapiens, Platelet, 20 μg/ml collagen, 37° C., read-out: IC50 Collagen (50% platelets aggregation inhibition)
Description: (§1) The platelets aggregation inhibitory activity of each test compound was measured by the method of Born et al. [J. Physiol., London, 162, 67 (1962)], using Platelets Aggregation Tracer manufactured by Nikoh Bioscience Co., Ltd.
(§2) 9 volumes of a blood collected from person was mixed with 1 volume of a 3.8% aqueous sodium citrate solution. Part of the mixture was subjected to centrifugation at 1,100 rpm for 10 minutes to obtain a platelet rich plasma (PRP). The remainder of the mixture was also subjected to centrifugation at 3,000 rpm for 10 minutes to obtain a platelet poor plasma (PPP).
(§3) The number of platelets in the PRP was measured using Coulter Counter manufactured by Coulter Electronics Inc. Then, the PRP was diluted with the PPP so that the number of platelets in the dilution became 300,000, whereby a PRP solution was prepared.
(§4) 200 μl of this PRP solution and 2 ml of a solution containing a test compound at a given concentration were placed in an aggregation measurement cell and heated at 37° C. for 1 minute. Thereto was added 20 μl of adenosine diphosphate (ADP manufactured by Sigma Co.) or a collagen suspension (Collagen Reagent manufactured by Horm, Hormon-Chemie, Gmbh) to induce aggregation of platelets. The resulting mixture in the cell was measured for change of transmittance, after which a platelets aggregation curve was prepared. Incidentaly, the concentration of ADP or collagen was selected so that the final Concentration became 7.5 μM or 20 μg/ml.
(§5) Using the platelets aggregation curve, there was calculated a maximum aggregation rate (MAR) of platelets using the followoing formula: […]
(§6) wherein a represents a transmittance of the PRP obtained in the same manner; c represents a transmittance of the PPP obtained in the same manner; and b represents a transmittance at the maximum change, of the PRP solution containng the test compound and the aggregation inducer.
(§7) A MAR was also calculated as above, for the control containing no test compound.
(§8) Using the above two MARs, there were calculated platelets aggregation inhibitions (%) of each test compound at various concentrations using the following formula.
(§9) Inhibition=[1-(MAR of PRP solution containing test compound)/(MAR of PRP
(§10) solution containing no test compound)]×100
(§11) Using the above obtained platelets aggregation inhibitions (%) of each test compound at various concentrations, there was calculated a concentration (IC50) of each test compound for 50% platelets aggregation inhibition.

platelets [2] = assay: Platelets aggregation inhibitory activity (method of Born et al.), ADP-induced, human PRP (Pharmacological Test I); format: cell-based, man; conditions: 7.5 μM ADP, 37° C., read-out: IC50 ADP (50% platelets aggregation inhibition)
Description: as §1, §2, §3, §4, §5, §6, §7, §8, §9, §10, §11

SMILES	IC50 (platelets [1]) [µM]	IC50 (platelets [2]; Homo sapiens, Platelet) [µM]	IC50 (platelets [2]) [µM]
O=c1ccc2cc(OCCCCCS(=O)(=O)N(CCN3CCC(O)CC3)CC3CCCCCCC3)ccc2[nH]1 [Example 80]	15	13	
O=C(CN(CC1CCCCCCC1)S(=O)(=O)CCCOc1ccc2[nH]c(=O)ccc2c1)N1CCC(O)CC1 [Example 81]	11	6.1	
O=c1ccc2cc(OCCCS(=O)(=O)N(CCN3CCC(O)CC3)CC3CCCCC3)ccc2[nH]1 [Example 82]	3.8	4.5	
O=c1ccc2cc(OCCCS(=O)(=O)N(CCN3CCC(O)CC3)CC3CCCCO3)ccc2[nH]1 (centres unmarked) [Example 84]	9.1	9.5	
O=S(=O)(CCCOc1ccc2[nH]c(=S)ccc2c1)N(CCN1CCC(O)CC1)c1ccccc1 [Example 87]		4.7	
O=c1ccc2cc(OCCCCS(=O)(=O)N(CCN3CCC(O)CC3)C3CCCCCCC3)ccc2[nH]1 [Example 88]	1.4	2.8	
O=c1ccc2cc(OCCCCS(=O)(=O)N(CCN3CCC(O)CC3)Cc3cccs3)ccc2[nH]1 [Example 90]	5.4	5.3	
Cc1ccc(CN(CCN2CCC(O)CC2)S(=O)(=O)CCCCOc2ccc3[nH]c(=O)ccc3c2)cc1 [Example 94]	2.3	1.4	
O=c1ccc2cc(OCCCCS(=O)(=O)N(CCN3CCC(O)CC3)Cc3ccc(Cl)c(Cl)c3)ccc2[nH]1 [Example 95]	7.1	10	
COc1ccc(CN(CCN2CCC(O)CC2)S(=O)(=O)CCCCOc2ccc3[nH]c(=O)ccc3c2)cc1OC [Example 96]	6.5	8.7	
O=c1ccc2cc(OCCCS(=O)(=O)N(CCN3CCCCC3)CC3CCCCCCC3)ccc2[nH]1 [Example 97]	18	14	
O=c1ccc2cc(OCCCS(=O)(=O)N(CCN3CCOCC3)CC3CCCCCCC3)ccc2[nH]1 [Example 98]	12	9.1	
O=c1ccc2cc(OCCCS(=O)(=O)N(CCN3CCN(CCO)CC3)CC3CCCCCCC3)ccc2[nH]1 [Example 99]	3.5	2.9	
CN(C)C1CCN(CCN(CC2CCCCCCC2)S(=O)(=O)CCCOc2ccc3[nH]c(=O)ccc3c2)CC1 [Example 100]	6.5	13	
O=c1ccc2cc(OCCCS(=O)(=O)N(CCN3CCC4(CC3)OCCO4)CC3CCCCCCC3)ccc2[nH]1 [Example 101]	3.2	2.9	
O=c1ccc2cc(OCCCS(=O)(=O)N(CCN3C[C@H](O)[C@@H](O)C3)CC3CCCCCCC3)ccc2[nH]1 [Example 102]	15	9.5	
O=c1ccc2cc(OCCCS(=O)(=O)N(CCN3CCC[C@H]3CO)CC3CCCCCCC3)ccc2[nH]1 [Example 103]	3.2	2.6	
O=c1ccc2cc(OCCCCS(=O)(=O)N(CCN3CCC[C@H]3CO)CC3CCCCC3)ccc2[nH]1 [Example 104]	2.3	3.5	
O=c1ccc2cc(OCCCCS(=O)(=O)N(CCN3CCCS3(=O)=O)Cc3ccccc3)ccc2[nH]1 [Example 105]	1.1	2.2	
CCN1C[C@H](O)C[C@H]1CN(CC1CCCCC1)S(=O)(=O)CCCCOc1ccc2[nH]c(=O)ccc2c1 [Example 106]	0.9	1.4	
CCN(CC)CC(CO)N(CC1CCCCCCC1)S(=O)(=O)CCCCOc1ccc2[nH]c(=O)ccc2c1 (centres unmarked) [Example 107]	3.2	3.4	
O=c1ccc2cc(OCCCCS(=O)(=O)N(CCNCCO)CC3CCCCCCC3)ccc2[nH]1 [Example 108]	2	2.9	
CCN(CC)CCN(CC1CCCCCC1)S(=O)(=O)CCCOc1ccc2[nH]c(=O)ccc2c1 [Example 110]	8.3	4.7	
CC(=O)NCCN(CC1CCCCCCC1)S(=O)(=O)CCCOc1ccc2[nH]c(=O)ccc2c1 [Example 111]	2.9	2.2	
CC(=O)NCCN(CC1CCCCCCC1)S(=O)(=O)CCCCOc1ccc2[nH]c(=O)ccc2c1 [Example 112]	0.69	0.83	
CCOC(=O)CN(CC1CCCCCCC1)S(=O)(=O)CCCOc1ccc2[nH]c(=O)ccc2c1 [Example 114]	4	6.5	
CN(C(=O)NCCCOc1ccc2[nH]c(=O)ccc2c1)C1CCCCC1 [Example 133]		2.9	
CN(C(=S)CCCOc1ccc2[nH]c(=O)ccc2c1)C1CCCCC1 [Example 135]			22

From patent US5506239A, “Carbostyril derivative and platelets aggregation inhibitory agent” (Otsuka Pharmaceutical Co., Ltd., priority 1991, dated 1996)
